Reference: patent US20250340575A1, “4-AMINOPYRROLO[2,1-F][1,2,4]TRIAZINES AND PREPARATION AND USES THEREOF” (Biosplice Therapeutics, Inc., priority 2024, published 2025)

The compounds below were run against recombinant DYRK1A kinase (Homo sapiens, UniProt Q13627) (assay: DYRK1A kinase assay (Ser/Thr 18 peptide Z-lyte FRET)). Conditions: DYRK1A 0.25 μg/mL, ATP 15 μM, Ser/Thr peptide 18 4 μM, one hour at room temperature, 11-point dose-response from 10 μM.
Format: biochemical
Method: Representative compounds were screened using the assay procedure for DYRK1A kinase activity as described below.
Each compound was dissolved in DMSO as a 10 mM stock and used to prepare compound source plates. Serial dilution (1:3, 11-point dose-response curves from 10 μM to 0.00016 μM) and compound transfer was performed using the ECHO 550 (Labcyte, Sunnyvale, CA) into 1536-well black-walled round bottom plates (Corning).
The DYRK1A kinase assay was run using the Ser/Thr 18 peptide Z-lyte assay kit according to manufacturer's instructions (Life Technologies—a Division of Thermo-Fisher). This is a non-radioactive assay using fluorescence resonance energy transfer (FRET) between coumarin and fluorescein to detect kinase activity which is represented as a ratio of coumarin emission/fluorescein emission.
Briefly, recombinant DYRK1A kinase, ATP and Ser/Thr peptide 18 were prepared in 1× Kinase buffer to final concentrations of 0.25 μg/mL, 15 μM, and 4 μM respectively. The mixture was allowed to incubate with the representative compounds for one hour at room temperature. All reactions were performed in duplicate. Unphosphorylated (“0% Control”) and phosphorylated (“100% control”) forms of Ser/Thr 18 served as control reactions. Additionally, an 11-point dose-response curve of Staurosporine (1 uM top) was run to serve as a positive compound control.
After incubation, Development Reagent A was diluted in Development Buffer then added to the reaction and allowed to further incubate for one hour at room temperature. The plate was read at Ex 400 Em 455 to detect the coumarin signal and Ex 400 Em 520 to measure the signal (EnVision Multilabel Plate Reader, PerkinElmer).
The Emission ratio (Em) was calculated as a ratio of the coumarin (C) emission signal (at 445 nm)/Fluorescein (F) emission signal (at 520 nm). The percent phosphorylation was then calculated using the following formula: [1−((Em ratio×F100%)−C100%)/((C0%−C100%)+(Em ratio×(F100%−F0%)))]. Dose-response curves were generated, and inhibitory concentration (IC50) values were calculated using non-linear regression curve fit in the Dotmatics' Studies Software (Bishops Stortford, UK).

Q: With `CN1C[C@@H](Nc2nc(N)c3c(-c4ccc5ncn(CC(F)(F)F)c5n4)ccn3n2)C(F)(F)C1` [Compound 124, (R)—N^2-(4,4-Difluoro-1-methylpyrrolidin-3-yl)-5-(3-(2,2,2-trifluoroethyl)-3H-imidazo[4,5-b]pyridin-5-yl)pyrrolo[2,1-f][1,2,4]triazine-2,4-diamine] as the compound, how does the IC50 read?
A: 1 nM

Q: Which IC50 does the source give for `CN1CC[C@H](Nc2nc(N)c3c(-c4ccc5ncn(CC(F)(F)F)c5n4)ccn3n2)[C@H](F)C1` [Compound 125, N^2-((3R,4S)-3-Fluoro-1-methylpiperidin-4-yl)-5-(3-(2,2,2-trifluoroethyl)-3H-imidazo[4,5-b]pyridin-5-yl)pyrrolo[2,1-f][1,2,4]triazine-2,4-diamine] here?
A: 1.7 nM

Q: With `COCCN1CC[C@H](Nc2nc(N)c3c(-c4ccc5ncn(CC(F)(F)F)c5n4)ccn3n2)[C@H](F)C1` [Compound 126, N^2-((3R,4S)-3-Fluoro-1-(2-methoxyethyl)piperidin-4-yl)-5-(3-(2,2,2-trifluoroethyl)-3H-imidazo[4,5-b]pyridin-5-yl)pyrrolo[2,1-f][1,2,4]triazine-2,4-diamine] as the compound, how does the IC50 read?
A: 1.3 nM

Q: How did the IC50 turn out when `CC(=O)N1CC[C@H](Nc2nc(N)c3c(-c4ccc5ncn(CC(F)(F)F)c5n4)ccn3n2)[C@H](F)C1` [Compound 127, 1-((3R,4S)-4-((4-Amino-5-(3-(2,2,2-trifluoroethyl)-3H-imidazo[4,5-b]pyridin-5-yl)pyrrolo[2,1-f][1,2,4]triazin-2-yl)amino)-3-fluoropiperidin-1-yl)ethan-1-one] was run?
A: 1.5 nM

Q: For `Nc1nc(N[C@@H]2CCN(C3COC3)C[C@@H]2F)nn2ccc(-c3ccc4ncn(CC(F)(F)F)c4n3)c12` [Compound 128, N^2-((3S,4R)-3-Fluoro-1-(oxetan-3-yl)piperidin-4-yl)-5-(3-(2,2,2-trifluoroethyl)-3H-imidazo[4,5-b]pyridin-5-yl)pyrrolo[2,1-f][1,2,4]triazine-2,4-diamine], which IC50 is on record?
A: 1.4 nM

Q: `Nc1nc(N[C@H]2CCN(C3COC3)C[C@H]2F)nn2ccc(-c3ccc4ncn(CC(F)(F)F)c4n3)c12` [Compound 129, N^2-((3R,4S)-3-Fluoro-1-(oxetan-3-yl)piperidin-4-yl)-5-(3-(2,2,2-trifluoroethyl)-3H-imidazo[4,5-b]pyridin-5-yl)pyrrolo[2,1-f][1,2,4]triazine-2,4-diamine] was tested. Which IC50 did it give?
A: 1.4 nM

Q: Which IC50 does the source give for `Nc1nc(N[C@@H]2CCN(C3COC3)CC2(F)F)nn2ccc(-c3ccc4ncn(CC(F)(F)F)c4n3)c12` [Compound 131, (R)—N^2-(3,3-Difluoro-1-(oxetan-3-yl)piperidin-4-yl)-5-(3-(2,2,2-trifluoroethyl)-3H-imidazo[4,5-b]pyridin-5-yl)pyrrolo[2,1-f][1,2,4]triazine-2,4-diamine] here?
A: 4.7 nM

Q: `CNc1nc(N[C@H]2C[C@](C)(O)C2)nn2ccc(-c3ccc4ncn(CC(F)(F)F)c4n3)c12` [Compound 132, (1r,3r)-1-Methyl-3-((4-(methylamino)-5-(3-(2,2,2-trifluoroethyl)-3H-imidazo [4,5-b]pyridin-5-yl)pyrrolo[2,1-f][1,2,4]triazin-2-yl)amino)cyclobutan-1-ol] was tested. Which IC50 did it give?
A: 1.2 nM

Q: How did the IC50 turn out when `CNc1nc(N[C@H]2CCN(C(C)=O)C[C@H]2F)nn2ccc(-c3ccc4nc(C)n(C(F)F)c4n3)c12` [Compound 134] was run?
A: 5 nM

Q: `CNc1nc(N[C@H]2CCN(C3COC3)C[C@H]2F)nn2ccc(-c3ccc4nc(C)n(C(F)F)c4n3)c12` [Compound 135, 5-(3-(Difluoromethyl)-2-methyl-3H-imidazo[4,5-b]pyridin-5-yl)-N^2-((3R,4S)-3-fluoro-1-(oxetan-3-yl)piperidin-4-yl)-N^4-methylpyrrolo[2,1-f][1,2,4]triazine-2,4-diamine] was tested. Which IC50 did it give?
A: 6.4 nM

Q: With `Cc1nc2ccc(-c3ccn4nc(N[C@@H]5CCN(C6COC6)C[C@@H]5F)nc(N)c34)nc2n1CCF` [Compound 141, N^2-((3S,4R)-3-Fluoro-1-(oxetan-3-yl)piperidin-4-yl)-5-(3-(2-fluoroethyl)-2-methyl-3H-imidazo[4,5-b]pyridin-5-yl)pyrrolo[2,1-f][1,2,4]triazine-2,4-diamine] as the compound, how does the IC50 read?
A: 3.4 nM

Q: With `Cc1nc2ccc(-c3ccn4nc(N[C@@H]5CCN(C)CC5(F)F)nc(N)c34)nc2n1CCF` [Compound 142, (R)—N^2-(3,3-Difluoro-1-methylpiperidin-4-yl)-5-(3-(2-fluoroethyl)-2-methyl-3H-imidazo[4,5-b]pyridin-5-yl)pyrrolo[2,1-f][1,2,4]triazine-2,4-diamine] as the compound, how does the IC50 read?
A: 2.7 nM

Q: Which IC50 does the source give for `Cc1nc2ccc(-c3c(F)cn4nc(N[C@H]5CC[C@](C)(O)CC5)nc(N)c34)nc2n1CCF` [Compound 143, (1r,4r)-4-((4-Amino-6-fluoro-5-(3-(2-fluoroethyl)-2-methyl-3H-imidazo[4,5-b]pyridin-5-yl)pyrrolo[2,1-f][1,2,4]triazin-2-yl)amino)-1-methylcyclohexan-1-ol] here?
A: 1.3 nM

Q: `CC(=O)N1CC[C@H](Nc2nc(N)c3c(-c4ccc5nc(C)n(CCF)c5n4)c(F)cn3n2)[C@H](F)C1` [Compound 144, 1-((3R,4S)-4-((4-Amino-6-fluoro-5-(3-(2-fluoroethyl)-2-methyl-3H-imidazo [4,5-b]pyridin-5-yl)pyrrolo[2,1-f][1,2,4]triazin-2-yl)amino)-3-fluoropiperidin-1-yl)ethan-1-one] was tested. Which IC50 did it give?
A: 4.2 nM

Q: `Cc1nc2ccc(-c3c(F)cn4nc(N[C@H]5CCN(C6COC6)C[C@H]5F)nc(N)c34)nc2n1CCF` [Compound 145, 6-Fluoro-N2-((3R,4S)-3-fluoro-1-(oxetan-3-yl)piperidin-4-yl)-5-(3-(2-fluoroethyl)-2-methyl-3H-imidazo[4,5-b]pyridin-5-yl)pyrrolo[2,1-f][1,2,4]triazine-2,4-diamine] was tested. Which IC50 did it give?
A: 1.7 nM

Q: Which IC50 does the source give for `Cc1nc2ccc(-c3c(F)cn4nc(N[C@@H]5CCN(C)CC5(F)F)nc(N)c34)nc2n1CCF` [Compound 146, (R)—N^2-(3,3-Difluoro-1-methylpiperidin-4-yl)-6-fluoro-5-(3-(2-fluoroethyl)-2-methyl-3H-imidazo[4,5-b]pyridin-5-yl)pyrrolo[2,1-f][1,2,4]triazine-2,4-diamine] here?
A: 0.8 nM

Q: `CC(=O)N1CC[C@@H](Nc2nc(N)c3c(-c4ccc5nc(C)n(CCF)c5n4)c(F)cn3n2)C(F)(F)C1` [Compound 147, (R)-1-(4-((4-Amino-6-fluoro-5-(3-(2-fluoroethyl)-2-methyl-3H-imidazo[4,5-b]pyridin-5-yl)pyrrolo[2,1-f][1,2,4]triazin-2-yl)amino)-3,3-difluoropiperidin-1-yl)ethan-1-one] was tested. Which IC50 did it give?
A: 1.4 nM

Q: How did the IC50 turn out when `Cc1nc2ccc(-c3c(F)cn4nc(N[C@@H]5CCN(C6COC6)CC5(F)F)nc(N)c34)nc2n1CCF` [Compound 149, (R)—N^2-(3,3-Difluoro-1-(oxetan-3-yl)piperidin-4-yl)-6-fluoro-5-(3-(2-fluoroethyl)-2-methyl-3H-imidazo[4,5-b]pyridin-5-yl)pyrrolo[2,1-f][1,2,4]triazine-2,4-diamine] was run?
A: 0.8 nM

Q: `CNc1nc(N[C@H]2CCN(C3COC3)C[C@H]2F)nn2ccc(-c3ccc4nc(C)n(CCF)c4n3)c12` [Compound 157, N^2-((3R,4S)-3-Fluoro-1-(oxetan-3-yl)piperidin-4-yl)-5-(3-(2-fluoroethyl)-2-methyl-3H-imidazo[4,5-b]pyridin-5-yl)-N^4-methylpyrrolo[2,1-f][1,2,4]triazine-2,4-diamine] was tested. Which IC50 did it give?
A: 15.8 nM

Q: `CNc1nc(N[C@@H]2CCN(C3COC3)CC2(F)F)nn2ccc(-c3ccc4nc(C)n(CCF)c4n3)c12` [Compound 160, (R)—N^2-(3,3-Difluoro-1-(oxetan-3-yl)piperidin-4-yl)-5-(3-(2-fluoroethyl)-2-methyl-3H-imidazo[4,5-b]pyridin-5-yl)-N^4-methylpyrrolo[2,1-f][1,2,4]triazine-2,4-diamine] was tested. Which IC50 did it give?
A: 2.2 nM

Q: How did the IC50 turn out when `CNc1nc(N[C@H]2CC[C@](C)(O)CC2)nn2cc(F)c(-c3ccc4nc(C)n(CCF)c4n3)c12` [Compound 162, (1r,4r)-4-((6-Fluoro-5-(3-(2-fluoroethyl)-2-methyl-3H-imidazo[4,5-b]pyridin-5-yl)-4-(methylamino)pyrrolo[2,1-f][1,2,4]triazin-2-yl)amino)-1-methylcyclohexan-1-ol] was run?
A: 3.1 nM

Q: With `CNc1nc(N[C@H]2CCN(C(C)=O)C[C@H]2F)nn2cc(F)c(-c3ccc4nc(C)n(CCF)c4n3)c12` [Compound 163, 1-((3R,4S)-3-Fluoro-4-((6-fluoro-5-(3-(2-fluoroethyl)-2-methyl-3H-imidazo [4,5-b]pyridin-5-yl)-4-(methylamino)pyrrolo[2,1-f][1,2,4]triazin-2-yl)amino)piperidin-1-yl)ethan-1-one] as the compound, how does the IC50 read?
A: 1.3 nM

Q: Which IC50 does the source give for `CNc1nc(N[C@H]2CCN(C3COC3)C[C@H]2F)nn2cc(F)c(-c3ccc4nc(C)n(CCF)c4n3)c12` [Compound 164, 6-Fluoro-N^2-((3R,4S)-3-fluoro-1-(oxetan-3-yl)piperidin-4-yl)-5-(3-(2-fluoroethyl)-2-methyl-3H-imidazo[4,5-b]pyridin-5-yl)-N^4-methylpyrrolo[2,1-f][1,2,4]triazine-2,4-diamine] here?
A: 1.8 nM
